Molecular target: T1, ITK (Mus musculus, UniProt Q03526)
T1 construct: mice were sacrificed and splenocytes were isolated and used to prepare protein lysates; from tissue; host or cells: mouse splenocytes (spleen) after oral dosing
T1 sequence (Q03526 1-625): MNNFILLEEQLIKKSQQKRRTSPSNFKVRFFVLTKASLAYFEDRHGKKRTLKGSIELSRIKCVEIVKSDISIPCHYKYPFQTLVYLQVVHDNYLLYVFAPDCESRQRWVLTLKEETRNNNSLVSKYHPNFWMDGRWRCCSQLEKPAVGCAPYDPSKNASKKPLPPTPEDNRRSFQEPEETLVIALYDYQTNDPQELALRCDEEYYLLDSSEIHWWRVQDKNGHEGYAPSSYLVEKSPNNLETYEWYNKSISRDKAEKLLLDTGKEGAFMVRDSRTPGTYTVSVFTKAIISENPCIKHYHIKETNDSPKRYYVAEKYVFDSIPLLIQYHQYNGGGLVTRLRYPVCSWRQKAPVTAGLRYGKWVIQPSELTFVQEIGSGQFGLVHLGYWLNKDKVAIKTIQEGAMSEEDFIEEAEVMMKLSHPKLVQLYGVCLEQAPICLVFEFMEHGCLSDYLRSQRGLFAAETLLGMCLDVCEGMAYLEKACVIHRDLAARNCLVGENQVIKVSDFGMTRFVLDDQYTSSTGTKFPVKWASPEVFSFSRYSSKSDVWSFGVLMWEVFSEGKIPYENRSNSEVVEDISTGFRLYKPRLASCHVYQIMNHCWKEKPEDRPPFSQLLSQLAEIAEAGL
Test: Mouse PD assay for ITK degradation (Western blot, splenocytes after oral administration)
Format: in vivo
Details: for ITK (%) 90 mpk PO, 6 h: percent ITK remaining in mouse splenocytes relative to vehicle
Description: Compounds 1, 3, 7, and 42 were formulated and administered at 90 mg/kg to mice by oral gavage (PO). Blood was collected at defined time points (after 1, 2, and 6 hours) after compounds administration to determine PK parameters. Concentration increased through 6 hours. Six hours later mice were sacrificed and splenocytes were isolated and used to prepare protein lysates. Total protein levels were determined in the lysates using the BCA assay according to standard methods. Equal amounts of protein were then analyzed by Western blot to determine the level of ITK expression in each sample. ITK band intensities were measured using Alpha View software and the percent of ITK remaining in each test animal was determined relative to the mean of ITK levels in vehicle control samples.
After 6 hours, splenocytes cells were harvested. ITK was evaluated by Western blotting.
Compounds 43, 4, 5, 10, 11, 12, 44, 14, 3, and 13 were administered to mice orally. After 6 hours, splenocytes cells were harvested. ITK was evaluated by Western blotting. Media was removed and cell pellets were lysed in 100 uL lysis buffer (RIPA buffer (Fisher, PI89901), cOmplete Mini EDTA-free protease inhibitor (Sigma 11836170001), Protease Inhibitor Cocktail (Sigma, P2714), Phosphatase Inhibitor Cocktail 2 and 3 (Sigma, P5726 and P0044), Benzonase (Sigma, E1014)). Cells were lysed overnight at −20° C. Following thaw, cells were centrifuged for 10 min at 13000 rpm, then transferred to new tube. Protein levels were determined by BCA Assay performed according to manufacturer's protocol (EMID Millipore, cat. no. 71285-3). Samples were combined with (4×) LDS Sample Buffer and (10×) Reducing Agent and H2O to equally load 20 ug protein per lane of a 26-well NuPAGE 4-12% Bis-Tris protein gel (1.0 mm, Thermo cat. no. NP0326). Samples were separated by running gels at constant 150 V in NuPAGE MES SDS Running Buffer. Following electrophoresis, proteins were transferred to nitrocellulose membranes using an iBlot Gel Transfer Device and iBlot Gel Transfer Stacks (Thermo cat. no. IB21001 and IB301001) and transfer method P3 (20V for 7 min). Membranes were blocked for 1 hr in 5% milk solution (TBS (0.2% Tween-20)). Following blocking, membranes were incubated with primary antibody (1:1000 CST ITK (2F12) #2380) overnight at 4° C. with gentle shaking. Blots were washed 2× in TBS (0.2% Tween-20), 30 min per wash. Following washes, blots were incubated in secondary HRP-conjugated antibody (Promega anti-Mouse IgG (H+L) HRP cat. no. W4021), 1:5000 in 5% milk solution (TBS (0.2% Tween-20)), for 1 hr at room temperature with gentle shaking. Blots were washed 2× in TBS (0.2% Tween-20), 30 min per wash. Blots were incubated with 1:1 mix of ECL reagents 1 & 2 (Amersham ECL Western Blotting Detection Reagent, cat. no. RPN2106) for 2 min at room temperature. Bands were visualized using a Protein Simple imager. Blots were then re-probed with a combination of anti-actin antibody (Sigma Monoclonal Mouse Anti-3-Actin (clone AC-15), cat. no. A5441) and secondary H1RP-conjugated antibody (Promega anti-Mouse IgG (H+L) HRP, cat. no. W4021) and similar steps were taken for incubation, wash, detection and visualization steps as above. The data was analyzed using Alpha View software. The densitometric reading for each sample band was normalized to that of the corresponding actin band per lane. Approximate % ITK remaining per sample was calculated as follows: […]
Once % ITK remaining has been calculated for each sample, groups are averaged together to show an means % ITK normalized to actin and relative to control.
Compounds 16, 17, and 18 were administered to mice orally. After 6 hours or 24 hours, splenocytes cells were harvested. ITK was evaluated by Western blotting. Plasma concentrations were determined by LC/MS/MS. Plasma samples were protein precipitated by addition of 100 μl of acetonitrile containing 50 ng/ml of internal standard. The resulting mixture was vortexed and centrifuged at 4000 RPM for 5 minutes. […]

[1] = mice, oral, splenocytes, Western blot

C[C@@H](C(=O)N(C)c1ccc2cc(-c3n[nH]c4c3CCC(C)(C)C4)[nH]c2c1)N1CCN(CC2CCN(c3ccc(N4CCC(=O)NC4=O)cn3)CC2)CC1 [Compound 11, (S)—N-(2-(6,6-dimethyl-4,5,6,7-tetrahydro-1H-indazol-3-yl)-1H-indol-6-yl)-2-(4-((1-(5-(2,4-dioxotetrahydropyrimidin-1(2H)-yl)pyridin-2-yl)piperidin-4-yl)methyl)piperazin-1-yl)-N-methylpropanamide]
ITK degradation in vivo at 6 hours (FIG. 3A, FIG. 4A) [1]: degraded ITK in vivo
ITK (%) 90 mpk PO, 6 h: 116%

C[C@@H](C(=O)N(C)c1ccc2cc(-c3n[nH]c4c3C[C@@H]3C(F)(F)[C@]3(C)C4)[nH]c2c1)N1CCN(CC2CCN(c3ccc(C(=O)NC4CCC(=O)NC4=O)nc3)CC2)CC1 (stereo partly drawn) [Compound 66, 5-(4-((4-((S)-1-((2-((4aS,5aR)-5,5-difluoro-5a-methyl-1,4,4a,5,5a,6-hexahydrocyclopropa[f]indazol-3-yl)-1H-indol-6-yl)(methyl)amino)-1-oxopropan-2-yl)piperazin-1-yl)methyl)piperidin-1-yl)-N-(2,6-dioxopiperidin-3-yl)picolinamide]
ITK (%) 90 mpk PO, 6 h: 42.7%

C[C@@H](C(=O)N(C)c1ccc2cc(-c3n[nH]c4c3CCC(C)(C)C4)[nH]c2c1)N1CCN(C(=O)C2CN(C3CCN(c4ccc5c(c4)C(=O)N(C4CCC(=O)NC4=O)C5=O)CC3)C2)CC1 (stereo partly drawn) [Compound 34, (2S)—N-(2-(6,6-dimethyl-4,5,6,7-tetrahydro-1H-indazol-3-yl)-1H-indol-6-yl)-2-(4-(1-(1-(2-(2,6-dioxopiperidin-3-yl)-1,3-dioxoisoindolin-5-yl)piperidin-4-yl)azetidine-3-carbonyl)piperazin-1-yl)-N-methylpropanamide]
ITK (%) 90 mpk PO, 6 h: 108%

C[C@@H](C(=O)N(C)c1ccc2cc(-c3n[nH]c4c3CCC(C)(C)C4)[nH]c2c1)N1CCN(C[C@@H]2CCN(c3ccc4c(c3)n(C)c(=O)n4C3CCC(=O)NC3=O)C2)CC1 (stereo partly drawn) [Compound 4, (2S)—N-(2-(6,6-dimethyl-4,5,6,7-tetrahydro-1H-indazol-3-yl)-1H-indol-6-yl)-2-(4-(((3S)-1-(1-(2,6-dioxopiperidin-3-yl)-3-methyl-2-oxo-2,3-dihydro-1H-benzo[d]imidazol-5-yl)pyrrolidin-3-yl)methyl)piperazin-1-yl)-N-methylpropanamide]
ITK degradation in vivo at 6 hours (FIG. 3A, FIG. 4A) [1]: degraded ITK in vivo
ITK (%) 90 mpk PO, 6 h: 75%

C[C@@H](C(=O)N(C)c1ccc2cc(-c3n[nH]c4c3CCC(C)(C)C4)[nH]c2c1)N1CCN(C[C@H]2CCN(c3ccc4c(c3)CN(C3CCC(=O)NC3=O)C4=O)C2)CC1 (stereo partly drawn) [Compound 12, (2S)—N-(2-(6,6-dimethyl-4,5,6,7-tetrahydro-1H-indazol-3-yl)-1H-indol-6-yl)-2-(4-(((3R)-1-(2-(2,6-dioxopiperidin-3-yl)-1-oxoisoindolin-5-yl)pyrrolidin-3-yl)methyl)piperazin-1-yl)-N-methylpropanamide]
ITK degradation in vivo at 6 hours (FIG. 3A, FIG. 4A) [1]: degraded ITK in vivo
ITK (%) 90 mpk PO, 6 h: 82%

C[C@@H](C(=O)N(C)c1ccc2cc(-c3n[nH]c4c3C[C@@H]3C(F)(F)[C@]3(C)C4)[nH]c2c1)N1CCN(CC2CCN(c3ccc(C4CCC(=O)NC4=O)cn3)CC2)CC1 (stereo partly drawn) [Compound 17, (2S)—N-(2-((4aS,5aR)-5,5-difluoro-5a-methyl-1,4,4a,5,5a,6-hexahydrocyclopropa[f]indazol-3-yl)-1H-indol-6-yl)-2-(4-((1-(5-(2,6-dioxopiperidin-3-yl)pyridin-2-yl)piperidin-4-yl)methyl)piperazin-1-yl)-N-methylpropanamide]
ITK degradation in vivo at 6 hours (FIG. 3A, FIG. 4A) [1]: degraded ITK in vivo
ITK degradation in vivo at 24 hours (FIG. 3A, FIG. 4A) (mice, oral, splenocytes, Western blot, 24 hours): degraded ITK
ITK (%) 90 mpk PO, 6 h: 20%

CN(C(=O)CC[C@H]1CCN(c2ccc3c(c2)C(=O)N(C2CCC(=O)NC2=O)C3=O)C1)c1ccc2cc(-c3n[nH]c4c3C[C@@H]3C(F)(F)[C@]3(C)C4)[nH]c2c1 (stereo in doubt) [Compound 67, N-(2-((4aS,5aR)-5,5-difluoro-5a-methyl-1,4,4a,5,5a,6-hexahydrocyclopropafindazol-3-yl)-1H-indol-6-yl)-3-((3R)-1-(2-(2,6-dioxopiperidin-3-yl)-1,3-dioxoisoindolin-5-yl)pyrrolidin-3-yl)-N-methylpropanamide]
ITK (%) 90 mpk PO, 6 h (90 mg/kg): 190%

Cn1c(=O)n(C2CCC(=O)NC2=O)c2cccc(N3CCC(CN4CCC5(CC4)CCN(c4ccc6cc(-c7n[nH]c8c7C[C@@H]7C(F)(F)[C@]7(C)C8)[nH]c6c4)C5=O)CC3)c21 (stereo partly drawn) [Compound 16, 3-(4-(4-((2-(2-((4aS,5aR)-5,5-difluoro-5a-methyl-1,4,4a,5,5a,6-hexahydrocyclopropa[f]indazol-3-yl)-1H-indol-6-yl)-1-oxo-2,8-diazaspiro[4.5]decan-8-yl)methyl)piperidin-1-yl)-3-methyl-2-oxo-2,3-dihydro-1H-benzo[d]imidazol-1-yl)piperidine-2,6-dione]
ITK degradation in vivo at 6 hours (FIG. 3A, FIG. 4A) [1]: degraded ITK in vivo
ITK (%) 90 mpk PO, 6 h: 77%

CN(C(=O)C1CN(C2CCN(c3ccc4c(c3)C(=O)N(C3CCC(=O)NC3=O)C4=O)CC2)C1)c1ccc2cc(-c3n[nH]c4c3CCC(C)(C)C4)[nH]c2c1 (stereo not drawn) [Compound 35, N-(2-(6,6-dimethyl-4,5,6,7-tetrahydro-1H-indazol-3-yl)-1H-indol-6-yl)-1-(1-(2-(2,6-dioxopiperidin-3-yl)-1,3-dioxoisoindolin-5-yl)piperidin-4-yl)-N-methylazetidine-3-carboxamide]
ITK (%) 90 mpk PO, 6 h: 108%

CN(C(=O)CC[C@H]1CCN(c2ccc3c(c2)C(=O)N(C2CCC(=O)NC2=O)C3=O)C1)c1ccc2cc(-c3n[nH]c4c3C[C@@H]3C(F)(F)[C@]3(C)C4)[nH]c2c1 (stereo in doubt) [Compound 68]
ITK (%) 90 mpk PO, 6 h (90 mg/kg): 240%

C[C@@]12Cc3[nH]nc(C(=O)Nc4cnn(CC5CN(C(=O)C6CN(c7ccc8c(c7)C(=O)N(C7CCC(=O)NC7=O)C8=O)C6)C5)c4)c3C[C@@H]1C2(F)F (stereo partly drawn) [Compound 43, (4aS,5aR)-N-(1-((1-(1-(2-(2,6-dioxopiperidin-3-yl)-1,3-dioxoisoindolin-5-yl)azetidine-3-carbonyl)azetidin-3-yl)methyl)-1H-pyrazol-4-yl)-5,5-difluoro-5a-methyl-1,4,4a,5,5a,6-hexahydrocyclopropa[f]indazole-3-carboxamide]
ITK degradation in vivo at 6 hours (FIG. 3A, FIG. 4A) [1]: degraded ITK in vivo
ITK (%) 90 mpk PO, 6 h: 7%
